The values below come from patent publication US9757404B2, “Combination comprising an omega-3 fatty acid composition and an SGLT2 inhibitor” (AstraZeneca AB, priority 2014, dated 2017).

Structures are written as SMILES.

For test [1], the system named is diet-induced obese mouse model of fatty liver disease and NASH (DIO-NASH). Nature of the test: Mouse DIO-NASH model, 6 weeks treatment, hepatic pathology score (Example 3). The class given is in vivo, C57Bl/6J male mice. The following applies: DIO-NASH mice; for NAFLD activity score, post-hoc test comparing the control group with the other groups (FIG. 1): Kruskal-Wallis p <0.01; for NAFLD activity score, post-hoc test comparing the control group with the other groups (FIG. 1) / fibrosis stage, Kruskal-Wallis test vs vehicle control (FIG. 2): p<0.05 regarded as significant; for fibrosis stage, Kruskal-Wallis test vs vehicle control (FIG. 2): p=0.4. The source says:
Effect of SGLT-2 Inhibitors and Epanova Alone or in Combination on Metabolic Parameters and Hepatic Pathology Score in a Mouse DIO-NASH Model
Determine the effect of 6 weeks treatment with the SGLT2 inhibitors dapagliflozin, ipragliflozin and canagliflozin and the Omega-3 compound Epanova alone or in combination on NAFLD Activity Score (NAS) including fibrosis stage (post versus pre-treatment) in a diet-induced obese mouse model of fatty liver disease and NASH (DIO-NASH).
At 5 weeks of age, C57Bl/6J male mice are purchased from JanVier, France. During the acclimatization and diet-induction period, the mice are group housed five per cage under a 12:12 light dark cycle (lights on from 0400-1600 h) at controlled temperature conditions (22±1° C.; 50±10% relative humidity). Throughout the study period, the mice have ad libitum access to NASH diet (DIO-NASH) (D09100301, Research Diet) (40% fat (18% trans-fat)), 40% carbohydrates (20% fructose) and 2% cholesterol). The animals are kept on the diet for 28 weeks before experimentation. In addition, a sub-set of animals are given normal chow (Altromin 1324, Brogaarden) to be included as a lean control group (LEAN-CHOW). During post-OP recovery and study period, animals will be single-housed. BW will be recorded once daily during the study period. 24 h food and water intake will be recorded once weekly during the study period.
During the DIO-NASH diet-induction period, BW will be monitored once monthly. After 25 weeks of diet-induction, a liver biopsy will be obtained for hepatic progression of fibrosis and steatosis evaluated by histochemical analysis, and subsequently NAFLD Activity Score including fibrosis stage and optional gene expression analysis (see below). At day −6, animals are stratified into treatment groups according to levels of fibrosis (% collagen) followed by randomization based on 1) liver fibrosis and 2) BW. In addition, liver steatosis (% lipid) will be analyzed. At day −5, animals are EchoMRI scanned for body composition analysis.
Dosing volume is 5-20 ml/kg (TBD). Route of administration is per oral (PO) dosing by gavage. Dosing frequency will be once daily (QD). Day 0 is the first day of dosing. Animals are dosed with compound(s) and vehicle between 2-4 PM. Animals are dosed for 42 days. Last dose will be administered the day before termination (study day 41).
A liver pre-biopsy and terminal liver tissue from the left lateral lobe will be collected for NAS and assessment of fibrosis stage by use of clinical criteria outlined by Kleiner and colleagues (Design and validation of a histological scoring system for nonalcoholic fatty liver disease, Kleiner et al, Hepatology 41; 2005). The NAS is the sum of steatosis, lobular inflammation and hepatocellular ballooning scores:
To assess hepatic steatosis, ballooning degeneration, fibrosis and inflammation sections are stained with H&E, Sirius Red, CK18 (ballooning) and Galectin-3 (macrophages), respectively) followed by analysis with Visiomorph software (Visiopharm, Copenhagen, Denmark). Biopsy assessment of hepatic steatosis, fibrosis or inflammation will be described as percentage of total area using a protocol designed for the specific purpose.
Results are presented as mean±SEM (standard error of the mean) unless otherwise stated. Statistical evaluation of the data is carried out using Student's unpaired t-test or two-way ANOVA for comparison of LEAN-CHOW control versus DIO-NASH Vehicle. For comparison of DIO-NASH groups, one-way and two-way ANOVA are being applied where appropriate. Post-hoc analysis (Dunnett/Bonferroni) in cases with statistical significance is performed (p<0.05 considered significant).

In test [2] the test system is VCU (Virginia Commonwealth University) NASH mouse model. As to the kind of experiment: VCU NASH mouse model, 4 weeks treatment, liver histology (Example 4). The format is in vivo. The following applies: VCU NASH mice, 4 weeks daily gavage; dapagliflozin 1 mg/kg/d, Epanova 600 mg/kg/d. The method, then:
A further pre-clinical mouse study was carried out according to the Experimental plan described below:
Model: VCU (Virginia Commonwealth University) NASH mouse model; inbred C57bI6J/×129SI/SvlmJ given high fat, cholesterol, fructose and glucose diet for 16 weeks before starting pharmacological treatment.
Treatment: drugs will be administered by daily gavage. Gavage volume will not exceed 3 mL/Kg. vehicles will be olive oil and water. Epanova and dapagliflozin will be administered by daily gavage in one syringe.
Run-in: 16 weeks in high fat, cholesterol, fructose and glucose diet one week with vehicle gavage.
T=0 weeks: the mice will be matched based on body weight. The mice will be divided into 4 groups of 12 animals. Vehicle gavage for one week before commencing active treatment for 4 weeks.

Test [3] deals with two mouse models of NASH. As to the kind of experiment: Overall summary of the two pre-clinical NASH mouse studies. The format is in vivo. From the text: We have investigated the effect of Epanova, dapagliflozin and the combination of the two components in two pre-clinical studies and a human clinical study, described in the Examples herein.
In the NASH mouse studies included in the present application, no changes in body weight, glucose or insulin levels or liver fat were observed, however the NASH mouse models used were not diabetic, but were obese and insulin resistant.

For test [4], the system named is diabetic population. The following applies: cited from earlier work.
For test [5], the target named is human SGLT2 (hSGLT2) (Homo sapiens, UniProt P31639). The following applies: stated property, no value given; cited from earlier work.
human SGLT2 (hSGLT2), sequence (P31639 whole entry): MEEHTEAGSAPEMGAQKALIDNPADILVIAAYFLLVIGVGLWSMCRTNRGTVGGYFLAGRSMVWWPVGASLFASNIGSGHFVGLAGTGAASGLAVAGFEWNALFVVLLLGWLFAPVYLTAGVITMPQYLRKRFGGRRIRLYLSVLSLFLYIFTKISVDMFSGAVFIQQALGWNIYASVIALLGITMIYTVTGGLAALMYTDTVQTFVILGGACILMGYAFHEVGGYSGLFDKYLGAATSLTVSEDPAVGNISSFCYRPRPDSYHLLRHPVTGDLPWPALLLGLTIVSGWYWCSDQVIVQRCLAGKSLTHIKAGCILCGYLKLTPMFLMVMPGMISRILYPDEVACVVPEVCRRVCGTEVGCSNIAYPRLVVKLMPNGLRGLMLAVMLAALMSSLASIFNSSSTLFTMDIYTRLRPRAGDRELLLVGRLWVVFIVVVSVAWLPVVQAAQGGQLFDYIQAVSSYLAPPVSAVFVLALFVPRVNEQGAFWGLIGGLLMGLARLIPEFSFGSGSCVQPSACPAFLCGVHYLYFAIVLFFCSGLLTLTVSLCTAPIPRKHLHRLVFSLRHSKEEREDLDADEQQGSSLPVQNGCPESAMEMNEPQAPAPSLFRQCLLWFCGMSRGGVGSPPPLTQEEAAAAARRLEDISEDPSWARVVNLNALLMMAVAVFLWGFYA
Where [6] appears, read: 6 weeks QD PO, dapagliflozin 1 mg/kg, Epanova 600 mg/kg, vs vehicle.

Take `CCOc1ccc(Cc2cc([C@@H]3O[C@H](CO)[C@@H](O)[C@H](O)[C@H]3O)ccc2Cl)cc1` [Dapagliflozin, dapagliflozin]: in test [1] (setting [6]), the “NAFLD activity scores at the end of the study (primary effect variable)” value is given as “No effects” and the “fibrosis stage at the end of the study (primary effect variable)” value is given as “No effects”. Also, in test [1] (6 weeks QD PO, post versus pre-treatment), the “fibrosis, comparing baseline and end-of study biopsies” value was “reduced fibrosis”. Besides, in test [1], the “NAFLD activity score, post-hoc test comparing the control group with the other groups (FIG. 1)” value is “not significant” and the “fibrosis stage, Kruskal-Wallis test vs vehicle control (FIG. 2)” value is “non-significant”. Also, the “overall effect on histology (NAFLD Activity Score, fibrosis stage)” value in test [2] is “no effect”. In addition, the “effect of treatment on NASH” value in test [3] is reported as “did not show any effect”. Besides, the liver fat content result in test [4] (diabetic population / diabetic patients) was “tend to reduce liver fat content”. Further, the body fat content result in test [4] (published studies (Kabir et al; Bolinder et al)) is “reduce body fat content”. The “selectivity for SGLT2 relative to SGLT1” value in test [5] is recorded as “High selectivity for SGLT2”.
As for `OC[C@H]1O[C@@H](c2ccc(F)c(Cc3cc4ccccc4s3)c2)[C@H](O)[C@@H](O)[C@@H]1O` [Ipragliflozin, ipragliflozin], in test [1], the “NAFLD activity score, post-hoc test comparing the control group with the other groups (FIG. 1)” value is recorded as “not significant” and the “fibrosis stage, Kruskal-Wallis test vs vehicle control (FIG. 2)” value is on record as “non-significant”.
For `Cc1ccc([C@@H]2O[C@H](CO)[C@@H](O)[C@H](O)[C@H]2O)cc1Cc1ccc(-c2ccc(F)cc2)s1` [Canagliflozin, canagliflozin], in that order: “not significant” and “non-significant”.
